# Experimental data as given in US20250248431A1, “AGENT FOR ENHANCING SALTINESS OR SUPRESSING OFF-FLAVOR” (AJINOMOTO CO., INC., priority 2022, published 2025).
# How the values were obtained:
# [1] = Test 9: sensory evaluation of off-taste level, meatballs; assay type: in vivo; conditions: effect if average score 1 point or more
# Description: (§1) Meatballs were produced as evaluation samples by the following steps (1) to (6).
# (§2) (1) Commercially available ground pork, sodium chloride (manufactured by Naikai Salt Industries Co., Ltd.), and potassium chloride (manufactured by Uji Pharmaceutical Co., Ltd.) were mixed in the ratios shown in Table 25 below, and the mixture was stirred in a stand mixer (“Kitchen Aid”, model: KSM5WH, manufactured by FMI Corporation) until the entire mixture was uniformly mixed. The speed scale of the stand mixer was set to “1”. (2) To the mixture obtained in the above-mentioned (1) were added finely chopped onion, water, salad oil (manufactured by J-OIL MILLS, INC.), potato starch (manufactured by Minami-Tokachi Rationalized Potato Starch Factory), and β-caryophyllene solution or β-caryophyllene oxide solution in the ratios shown in Table 25 below, and the mixture was stirred in the above-mentioned stand mixer (speed scale setting: 1) until the entire mixture was uniformly mixed. The β-caryophyllene solution was prepared by dissolving β-caryophyllene (manufactured by Sigma-Aldrich) in propylene glycol to a concentration of 1000 ppm by weight, and the β-caryophyllene oxide solution was prepared by dissolving β-caryophyllene oxide (manufactured by Penta Manufacturing Company) in propylene glycol to a concentration of 1000 ppm by weight. […]
# [2] = Test 9: sensory evaluation of saltiness intensity, meatballs; assay type: in vivo; conditions: effect if average score 1 point or more
# Description: as §1, §2
smiles,measurement,setting,value
C=C1CC[C@H]2O[C@]2(C)CC[C@@H]2[C@@H]1CC2(C)C [β-caryophyllene oxide],off-taste suppression effect,[1],suppress the off-taste of off-taste substances
same,saltiness enhancing effect,[2],can enhance the saltiness
